Entries after “also recorded” stand apart in the source; their conditions may differ.
Experiments:
ERRβ = molecular target: T1, ERRβ (Homo sapiens, UniProt O95718); assay: ThermoFluor thermal shift assay, ERRβ; type: binding
T1 sequence (O95718 208-432 limits assumed): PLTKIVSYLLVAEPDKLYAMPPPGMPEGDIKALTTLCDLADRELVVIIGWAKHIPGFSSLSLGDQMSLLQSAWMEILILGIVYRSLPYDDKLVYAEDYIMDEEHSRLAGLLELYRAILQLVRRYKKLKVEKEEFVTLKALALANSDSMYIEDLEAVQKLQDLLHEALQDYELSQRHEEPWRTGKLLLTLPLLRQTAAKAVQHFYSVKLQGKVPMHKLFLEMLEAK

ERRα = molecular target: T2, ERRα (Homo sapiens, UniProt P11474); assay: ThermoFluor thermal shift assay, ERRα; type: binding; conditions: 100 μM test compound, 0.1 mg/mL protein, 25 mM HEPES pH 8.0, 25 μM ANS, 2% DMSO, Tm free protein 54.4 °C
T2 sequence (P11474 193-421 limits assumed): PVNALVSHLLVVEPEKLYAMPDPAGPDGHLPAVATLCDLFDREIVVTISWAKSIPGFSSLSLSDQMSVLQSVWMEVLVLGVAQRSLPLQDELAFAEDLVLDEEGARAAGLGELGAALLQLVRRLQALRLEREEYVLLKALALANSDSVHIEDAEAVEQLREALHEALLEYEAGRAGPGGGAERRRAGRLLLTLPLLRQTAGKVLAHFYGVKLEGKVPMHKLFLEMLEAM

ERα = molecular target: T3, ERα (Homo sapiens, UniProt P03372); assay: ThermoFluor thermal shift assay, ERα; type: binding
T3 sequence (P03372 1-595): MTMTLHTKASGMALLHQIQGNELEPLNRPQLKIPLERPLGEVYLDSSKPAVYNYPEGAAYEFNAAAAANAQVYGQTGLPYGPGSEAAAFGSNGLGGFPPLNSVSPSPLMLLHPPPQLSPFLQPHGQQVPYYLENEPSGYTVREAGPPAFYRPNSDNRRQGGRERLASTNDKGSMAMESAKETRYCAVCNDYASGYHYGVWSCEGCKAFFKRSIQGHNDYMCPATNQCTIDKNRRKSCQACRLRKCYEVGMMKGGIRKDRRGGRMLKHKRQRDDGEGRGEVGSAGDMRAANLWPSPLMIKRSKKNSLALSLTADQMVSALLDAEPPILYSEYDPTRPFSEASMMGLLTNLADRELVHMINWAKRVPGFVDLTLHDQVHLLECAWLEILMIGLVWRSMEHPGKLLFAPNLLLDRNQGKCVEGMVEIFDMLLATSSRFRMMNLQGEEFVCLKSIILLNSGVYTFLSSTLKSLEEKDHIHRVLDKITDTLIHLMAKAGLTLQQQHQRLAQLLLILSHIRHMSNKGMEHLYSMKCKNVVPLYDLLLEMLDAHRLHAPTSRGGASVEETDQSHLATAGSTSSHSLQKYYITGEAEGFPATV

[1] = molecular target: T4, ligand binding domain of ERRγ (Homo sapiens, UniProt P62508); assay: Thermal denaturation monitored by CD spectroscopy; conditions: data not shown
T4 construct: 6His; made in house; host or cells: E. coli BL21(DE3)
T4 sequence (P62508 229-458): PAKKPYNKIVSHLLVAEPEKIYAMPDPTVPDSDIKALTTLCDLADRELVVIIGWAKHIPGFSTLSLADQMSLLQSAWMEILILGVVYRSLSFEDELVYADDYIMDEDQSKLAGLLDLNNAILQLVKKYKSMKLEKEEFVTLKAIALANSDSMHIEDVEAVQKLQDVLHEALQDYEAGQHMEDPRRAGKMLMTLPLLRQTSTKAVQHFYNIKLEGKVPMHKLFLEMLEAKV
Excerpt: Ligand binding energy adds directly to the ground state energy of a macromolecule and results in increased thermal stability. The degree of stabilization is proportional to the binding affinity of the ligand for the macromolecule.

ERRγ = molecular target: T5, ERRγ (Homo sapiens, UniProt P62508); assay: Isothermal titration calorimetry; type: binding
T5 construct: 6His; made in house; host or cells: E. coli BL21(DE3)
T5 sequence (P62508 229-458): T4 sequence (P62508 229-458)
Procedure: The heat of interaction of the ligands with ERRγ molecules was measured by using the Omega titration calorimeter from Microcal Inc. In a typical titration, 1.4 mL of a 20 μM protein solution is titrated with a ligand solution of ˜0.4 mM concentration using a 100 μL syringe by ˜20 injections of 5-6 μL each. This syringe is also used to mix the reactants completely in the sample cell by rotating it at 400 rpm. For each injection, the area under the resulting peak is proportional to the heat of interaction, Q. Once this heat is corrected for the titrant dilution and normalized by the titrant solution concentration it becomes equal to the binding enthalpy, ΔHb, under nonsaturating conditions. The precision of the heat of each injection is about 0.5 μcal. One method of determining ΔHb is to average several intermediate peaks from the different sites. In addition to the binding enthalpies, one can obtain binding affinities, and overall stoichiometries of the complexes. The experimental calorimetric binding isotherm is the dependence of the total heat, Qr, (or dQrldX T) on the total concentration of ligand added, Xr. The above three parameters for each type of site are determined iteratively using the Marquardt algorithms as described previously.

ERβ = ERβ (Homo sapiens, UniProt Q92731); assay: ThermoFluor thermal shift assay, ERβ; type: binding; conditions: 100 μM test compound; 0.1 mg/mL protein, 25 mM HEPES pH 8.0; Tm free protein 41.1 °C; read-out: ΔTm, thermal stabilization of ERβ
ERβ, sequence (Q92731 whole entry, species assumed): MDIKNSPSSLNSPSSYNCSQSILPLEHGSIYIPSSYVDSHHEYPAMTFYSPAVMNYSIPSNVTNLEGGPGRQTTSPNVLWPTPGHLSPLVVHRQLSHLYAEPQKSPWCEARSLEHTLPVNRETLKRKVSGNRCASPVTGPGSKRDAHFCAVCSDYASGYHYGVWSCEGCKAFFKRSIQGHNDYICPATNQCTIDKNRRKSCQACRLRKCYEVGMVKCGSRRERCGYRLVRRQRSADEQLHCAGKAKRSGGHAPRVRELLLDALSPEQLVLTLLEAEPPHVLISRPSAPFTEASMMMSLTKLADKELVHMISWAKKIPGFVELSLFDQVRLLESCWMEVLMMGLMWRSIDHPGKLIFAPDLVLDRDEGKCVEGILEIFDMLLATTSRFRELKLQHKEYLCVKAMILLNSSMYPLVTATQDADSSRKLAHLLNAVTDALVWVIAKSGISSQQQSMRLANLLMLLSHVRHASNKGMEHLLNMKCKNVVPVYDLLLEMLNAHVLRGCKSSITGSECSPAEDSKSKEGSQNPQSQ

ERRγ-SRC2 complex = molecular target: T6, ERRγ-SRC2 complex (Homo sapiens, UniProt P62508); assay: TR-FRET co-activator recruitment assay; type: biochemical
T6 construct: made in house; host or cells: E. coli BL21(DE3) (ERRγ LBD)
T6 sequence (P62508 229-458): T4 sequence (P62508 229-458)
Procedure: For FRET measurements, the reaction was buffered in 25 mM Tris pH 8, 2.5 mM Hepes, 20 mM KCl, 1 mM DTT, and 0.05 mg/mL delipidated BSA.
Time-resolved Fluorescence resonance energy transfer (FRET) experiments were performed to examine the functional response of ERRγ ligands.
For FRET measurements, the reaction was buffered in 25 mM Tris pH 8, 2.5 mM Hepes, 20 mM KCl, 1 mM DTT, and 0.05 mg/mL BSA (-lipids). […] Reactions were allowed to reach equilibrium at 25° C. for 4-18 hours before collecting data on the Analyst from LJL Biosystems (Molecular Devices Sunnyvale, Calif.). […] Dose response curves were fitted using a hyperbolic equation and the data reported is the average of three independent experiments.

pBIND-Gal4-ERRγ = assay: Cell based reporter (trans-activation) assay in HEK293E cells; conditions: luciferase reporter, Gal4-ERRγ and pACT-SRC2, 24 hours of compound treatment
Procedure: A cell based reporter assay was used to determine the functional response of the ERRγ hits. Transfections were performed in HEK293E cells that were maintained in DMEM supplemented in glutamine and 10% FBS. Co-transfections of 4 μg of a luciferase reporter plasmid and 4 μg of each pBIND-Gal4-ERRγ and pACT-SRC2 plasmids per T-75 flask were done using Lipofectamine as per manufacturers instructions. Twenty-four hours post-transfection, the cells were seeded in 96-well plates at density of 50,000 cells per well in assay media (DMEM phenol free, 5% charcoal stripped FBS). […] After 24 hours of compound treatment, cells were lysed and treated with the Promega Dual-Glo system. Firefly Luciferase activity was read using a luminescence plate reader, and data were normalized against Renilla luciferase activity. Data were fitted using subroutines available from GraphPad.

Row | Compound | ΔTm, thermal stabilization of ERRβ (ERRβ; 100 μM test compound, 0.1 mg/mL protein, 25 mM HEPES pH 8.0, Tm free protein 47.5 °C) [°C] | Kd (ERRβ; calculated at reference temperature 25 °C from ΔTm of Table II, ΔHu 155 kcal/mol, read-out: Estimated dissociation constant, ERRβ) [nM] | ΔTm, thermal stabilization of ERRα (ERRα) [°C] | ΔTm, thermal stabilization of ERα (ERα; pH 8) [°C] | Thermal stabilization of ERRγ by loss of α-helicity (CD), in words [1] | ΔTm at 100 µM (ERRβ; 100 μM test compound, 0.1 mg/mL protein, 25 mM HEPES pH 8.0, Tm free protein 47.5 °C, read-out: ΔTm, thermal stabilization of ERRβ) [°C] | Kd (ERRγ; 20 μM protein titrated with ~0.4 mM ligand, read-out: Binding affinity by isothermal titration calorimetry) [nM] | Binding enthalpy ΔHb (ERRγ; isothermal titration calorimetry) [kcal/mol] | ΔTm at 100 µM (ERRα; read-out: ΔTm, thermal stabilization of ERRα) [°C] | ΔTm at 100 µM (ERβ) [°C] | ΔTm at 100 µM (ERα; 100 μM test compound, 0.1 mg/mL protein, 25 mM HEPES pH 8.0, Tm free protein 39.1 °C, read-out: ΔTm, thermal stabilization of ERα) [°C] | Enhancement in the affinity of the receptor for co-activator peptide fragments, in words (ERRγ-SRC2 complex) | Displacement of co-activator peptide from ERRγ (antagonism), in words (ERRγ-SRC2 complex; 6 nM ERRγ LBD, 6 nM GST-SRC-2 peptide) | Change in transcriptional activity in trans-activation cellular assay, in words (pBIND-Gal4-ERRγ)
1 | 4-hydroxytamoxifen [4OHT] | 2.15 | 2640 | −0.1 | 17.1 | positive thermal stabilization |  |  |  |  |  |  |  |  | 
2 | CC(C)(c1ccc(O)cc1)c1ccc(O)cc1 [BPA, bisphenol A] |  |  |  |  |  | -0.1 | 70 | ~-21 | 0 | 7.4 | 4.4 | not able to demonstrate | ineffective; also recorded: neither ligand displaced co-activator peptide | not able to demonstrate

— patent US7655756B2 (Johnson & Johnson Pharmaceutical Research & Development, LLC, priority 2005, dated 2010)
